Laboratory results: US20250326779A1, “ANTI-HIV COMPOUNDS” (priority 2024, published 2025)
≈ marks a conversion by molar mass, not a printed value.

How the values were obtained:
[1] = tested on: HIV-1 IIIB strain; assay: MT-4 HIV Wild Type Virus Infection Assay (IIIB Virus); format: cell-based; conditions: Human immunodeficiency virus 1, MT4, 120 h; MT-4 cells acutely infected with HIV-1 IIIB, 5 day incubation, Cell-titer glo
Procedure: MT-4 HIV Wild Type Virus Infection Assay (IIIB Virus)
Test compounds and controls were serially diluted and spotted in replicate into 384 well black assay plates via acoustic transfer (Echo). MT-4 cells were grown in batch, centrifuged and resuspended into fresh CCM media (RPMI w/10% FBS, 1% PS) at 2×10^6 cells/ml. MT-4 cells were acutely infected with HIV-1 IIIB strain. The size of each infection mix was scaled by the number of sample plates to be tested. Each infection mix was transferred into 5 mL closed tubes and nutated rapidly on a shaker at 37° C. incubator for 1 hour. The infection mixes were then diluted 25× in fresh cell culture media and then added to assay plates at 40 μL per well using a ViaFlo 384 pipettor. After 5 day incubation at 37° C. in a C02 incubator, assay plates were processed with Cell-titer glo reagent using a ViaFlo 384 with an addition/mixing program. Plates were read immediately on Envision reader. Assay signals were plotted and dose response curves generated to determine individual compound EC50s.

[2] = molecular target: T1, bovine intestinal alkaline phosphatase (Bos taurus, UniProt P19111); assay: BiALP: conversion by bovine intestinal alkaline phosphatase; format: in vitro ADME; conditions: remaining substrate after 60 min at 37° C., 2 μM substrate, 100 ng/mL iALP, Tris buffer pH 7.8
T1 construct: purchased Millipore Sigma (St. Louis, MO) or Thermo Fisher Scientific (Waltham, MA)
T1 sequence (P19111 20-506 limits assumed): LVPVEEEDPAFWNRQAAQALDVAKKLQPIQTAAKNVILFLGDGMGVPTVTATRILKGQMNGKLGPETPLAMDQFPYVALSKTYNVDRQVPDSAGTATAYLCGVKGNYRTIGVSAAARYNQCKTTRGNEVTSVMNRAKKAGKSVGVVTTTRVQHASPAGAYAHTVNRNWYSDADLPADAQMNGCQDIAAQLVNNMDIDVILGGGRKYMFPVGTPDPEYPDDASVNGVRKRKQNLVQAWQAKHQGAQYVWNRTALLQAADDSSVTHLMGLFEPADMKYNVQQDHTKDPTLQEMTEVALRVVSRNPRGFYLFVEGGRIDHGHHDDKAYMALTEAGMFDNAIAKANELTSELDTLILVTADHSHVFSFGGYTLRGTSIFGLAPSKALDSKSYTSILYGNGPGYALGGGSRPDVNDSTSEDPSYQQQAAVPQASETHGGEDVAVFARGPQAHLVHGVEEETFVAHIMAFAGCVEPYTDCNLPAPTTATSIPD
Procedure: Fosamprenavir and its parent compound (amprenavir) were purchased from Millipore Sigma (St. Louis, MO). Test compounds, Intermediate A, fosamprenavir, and amprenavir were each separately dissolved in dimethyl sulfoxide (DMSO) at a concentration of 10 mM to form stock solutions.
All other chemicals were purchased from Millipore Sigma (St. Louis, MO) and Thermo Fisher Scientific (Waltham, MA). The chemicals included purified bovine intestinal alkaline phosphatase as a lyophilized powder (specific activity: 101 diethanolamine units/mg solid). Internal Standard/Quench (IS/Q) was 100 nM labetalol in 99:1 (v/v) acetonitrile/formic acid.
Incubations were performed with Tris buffer alone (0.1 M Tris-HCl pH 7.8 containing 1 mM MgCl2 and 1 mM ZnCl2) or the same Tris buffer further containing 100 ng/mL iALP (0.01 units/mL). Triplicate 100 μL aliquots of Tris buffer±iALP were warmed to 37° C. and the reactions were initiated by the addition of the test compound or fosamprenavir to obtain final substrate concentrations of 2 μM. Incubations were then continued at 37° C. […] Aliquots (15 μL) of the diluted supernatants were analyzed by mass spectrometry as described below.
Quantification of the test compounds and fosamprenavir was performed by analyte/internal standard peak area ratios (PARs) with comparison to 2 μM Intermediate A and amprenavir, respectively. […]

[3] = Intestinal S9 Assay (human); format: in vitro ADME; conditions: pooled intestinal S9 fraction, 1.0 mg/mL S9 protein, 2 μM substrate, TRIS pH 7.4, read-out: Human GI S9 T½
Procedure: (§1) Reagents. Stock solutions of test compounds in dimethyl sulfoxide (DMSO) having a final concentration of 10 mM were prepared and used in all experiments. Sekisui XenoTech (Kansas City, KS) provided pooled intestinal S9 fractions. All other chemicals were purchased from Sigma-Aldrich (St. Louis, MO) or VWR (West Chester, PA).
(§2) Intestinal S9 Assay: For each test compound, an aliquot of the test compound was added to S9 stock diluted with TRIS buffer (100 mM TRIS, 1 mM ZnCl2, 1 mM MgCl2), pH 7.4, to obtain an incubation protein concentration of 1.0 mg/mL. The incubation was initiated by the addition of the substrate to the S9 reaction mixture to a final concentration of 2 μM. […] After quenching, the plates were centrifuged at 3000×g for 30 minutes. 150 μL aliquots of each supernatant were transferred to new plates and 150 μL water was added. Aliquots (10 μL) of the prepared samples were analyzed on a Thermo Q-Exactive mass spectrometer as described below.
(§3) Liquid Chromatography-Mass Spectrometry: Quantification of test compounds and control substrate was performed by analyte/internal standard peak area ratio (PAR) values measured on a Thermo Q-Exactive mass spectrometer coupled to a Dionex UltiMate 3000 HPLC with a Leap Technologies HTC PAL autosampler. The column used for analysis was a Thermo Scientific Hypersil GOLD (1.9 μm particle size, 50×2.1 mm). […]

[4] = Intestinal S9 Assay (dog); format: in vitro ADME; conditions: pooled intestinal S9 fraction, 1.0 mg/mL S9 protein, 2 μM substrate, TRIS pH 7.4, read-out: Dog GI S9 T½
Procedure: as §1, §2, §3

[5] = pH 7 Stability Assay; format: physicochemical; conditions: ACN/pH 7.4 buffer with 1% DMSO stock; 1/49.5/49.5% v/v DMSO stock/ACN/pH 7.4 buffer, UPLC 0-24 h; read-out: pH7 T½
Procedure: pH 7 Stability Assay: A sample stock at approximately 10 mg/mL of each test compound was prepared with dimethyl sulfoxide (DMSO) in vials. […] Sample vials were prepared by adding 495 μL ACN into a UPLC vial followed by 495 μL pH 7.4 buffer. Then 10 μL test compound stock solution from the first step was added to that UPLC vial. 1000 uL 50/50% v/v ACN/Water was used as diluent blank.
Metabolic stabilities were determined by measuring the rates of disappearance of test compound and positive control substrate. • Data (% of substrate remaining) were plotted on a semi-log scale and fitted using an exponential decline model:
[formula] • Assuming a first-order reaction, the slope (k) is extrapolated from the aforementioned plotted data.

[6] = Solubility in FaSSIF; format: physicochemical; conditions: 23 °C, thermodynamic from solid; FaSSIF pH 6.5, 5 mg/mL dose concentration, 2-hour incubation, ambient temperature
Procedure: Buffer Preparation: Fasted State Simulated Intestinal Fluid (FaSSIF): Simulated Intestinal Fluid (SIF) powder containing a complex of Taurocholate and Lecithin (4:1 molar ratio) was obtained from Biorelevant. […] The buffer was prepared with HPLC H2O.
Test Compounds: Each test compound was placed in a vial containing approximately 7 mg of material. Aliquots were weighed out for each assay media at each time point to be analyzed. The buffer was added to each vial such that the final dose concentration of 5 mg/mL was achieved. Samples were then vortexed for 5-10 seconds.
The plate was sealed with a pierceable heat seal and analyzed by HPLC-UV.

Compound | EC50 [1] | [Compound] [2] | half-life at 2 μM [3] | half-life at 2 μM [4] | half-life at 0.1 mg/mL [5] | solubility at 2 h [6]
COC(=O)N[C@H](C(=O)N[C@@H](Cc1ccc(C#Cc2cnc(N3CC4CCC(C3)N4C3COC3)nc2)cc1)[C@H](CN(Cc1c(F)cc(-c2ccn(C(F)F)n2)cc1F)NC(=O)[C@@H](NC(=O)OC)C(C)(C)C(F)(F)F)OCOP(=O)(O)O)C(C)(C)C(F)(F)F [Compound 1, methyl ((5S,8S,9S,14S)-11-(4-(1-(difluoromethyl)-1H-pyrazol-3-yl)-2,6-difluorobenzyl)-16,16,16-trifluoro-15,15-dimethyl-8-(4-((2-(8-(oxetan-3-yl)-3,8-diazabicyclo[3.2.1]octan-3-yl)pyrimidin-5-yl)ethynyl)benzyl)-3,6,13-trioxo-9-((phosphonooxy)methoxy)-5-(1,1,1-trifluoro-2-methylpropan-2-yl)-2-oxa-4,7,11,12-tetraazahexadecan-14-yl)carbamate] | 22.3 nM | 1691 nM | 0.787 h | 1.36 h | > 480 h | 580 µg/mL (≈ 458 µM)
CC(C)CN(C[C@@H](OP(=O)(O)O)[C@H](Cc1ccccc1)NC(=O)O[C@H]1CCOC1)S(=O)(=O)c1ccc(N)cc1 [Fosamprenavir, reference compound] | – | 1605 nM | – | – | – | –
